Test results: ChEMBL document CHEMBL3885861, “Open TG-GATES”

Species on record: Rattus norvegicus
Assay: Open TG-GATES - Regimen: Single
Format: toxicity, organism-based, Sprague-Dawley
Parameters: regimen Single, gender Male, age 6 weeks
Conditions: in vivo, iv, 120 mg/kg, route intravenous injection, dose level High; for APTT / Bas / Eos / Fbg / Hb / Ht / Lym / MCH / MCHC / MCV / Mono / Neu / PT / Plat / RBC / Ret / WBC: tissue Blood; for KIDNEY_L / KIDNEY_R / KIDNEY_TOTAL: tissue Kidney; for LIVER: tissue Liver; for A/G / ALP / ALT / AST / BUN / CRE / Ca / Cl / DBIL / GLC / IP / K / LDH / Na / PL / RALB / TBIL / TC / TG / TP / gamma-GTP: tissue Plasma

## CN(C)c1ncnc2c1ncn2[C@@H]1O[C@H](CO)[C@@H](N)[C@H]1O [PUROMYCIN AMINONUCLEOSIDE]
3 h
  TERMINAL_BW: 210.5 g
  APTT: 22.4 s
  Bas: 0%
  Eos: 0.8%
  Fbg: 278.6 mg/dL
  Hb: 12.8 g/dL
  Ht: 37.9%
  Lym: 44.4%
  MCH: 21.1 pg
  MCHC: 33.8%
  MCV: 62.5 fL
  Mono: 3%
  Neu: 51.2%
  PT: 16.3 s
  Plat: 116 x10_4/uL
  RBC: 607 x10_4/ul
  Ret: 6.7%
  WBC: 133.5 x10_2/uL
  KIDNEY_L: 1 g
  KIDNEY_R: 0.9 g
  KIDNEY_TOTAL: 1.9 g
  LIVER: 9 g
  A/G: 1.3
  ALP: 1280.6 IU/L
  ALT: 43.4 IU/L
  AST: 82.8 IU/L
  BUN: 13.8 mg/dL
  CRE: 0.2 mg/dL
  Ca: 11 mg/dL
  Cl: 104.8 meq/L
  DBIL: 0.002 mg/dL
  GLC: 163.2 mg/dL
  IP: 9.3 mg/dL
  K: 4.1 meq/L
  LDH: 162.8 IU/L
  Na: 141.4 meq/L
  PL: 140.4 mg/dL
  RALB: 3 g/dL
  TBIL: 0.032 mg/dL
  TC: 69 mg/dL
  TG: 88.2 mg/dL
  TP: 5.3 g/dL
  gamma-GTP: 1.4 IU/L
6 h
  TERMINAL_BW: 213.9 g
  APTT: 22.1 s
  Bas: 0%
  Eos: 0.6%
  Fbg: 304.8 mg/dL
  Hb: 12.6 g/dL
  Ht: 37.5%
  Lym: 43.2%
  MCH: 20.7 pg
  MCHC: 33.6%
  MCV: 61.6 fL
  Mono: 3.6%
  Neu: 51.2%
  PT: 15.8 s
  Plat: 121.6 x10_4/uL
  RBC: 608.8 x10_4/ul
  Ret: 6.9%
  WBC: 133.1 x10_2/uL
  KIDNEY_L: 0.9 g
  KIDNEY_R: 1 g
  KIDNEY_TOTAL: 1.9 g
  LIVER: 9.3 g
  A/G: 1.3
  ALP: 1220.8 IU/L
  ALT: 40.8 IU/L
  AST: 75 IU/L
  BUN: 11.6 mg/dL
  CRE: 0.1 mg/dL
  Ca: 11.3 mg/dL
  Cl: 103.6 meq/L
  DBIL: 0.004 mg/dL
  GLC: 165.2 mg/dL
  IP: 10.4 mg/dL
  K: 4.3 meq/L
  LDH: 135.8 IU/L
  Na: 140 meq/L
  PL: 151 mg/dL
  RALB: 3 g/dL
  TBIL: 0.042 mg/dL
  TC: 79.8 mg/dL
  TG: 60.4 mg/dL
  TP: 5.4 g/dL
  gamma-GTP: 1.6 IU/L
9 h
  TERMINAL_BW: 213.9 g
  APTT: 22.8 s
  Bas: 0%
  Eos: 1%
  Fbg: 298.6 mg/dL
  Hb: 12.8 g/dL
  Ht: 38.3%
  Lym: 56%
  MCH: 20.9 pg
  MCHC: 33.5%
  MCV: 62.5 fL
  Mono: 2.8%
  Neu: 39.6%
  PT: 15.4 s
  Plat: 116 x10_4/uL
  RBC: 614 x10_4/ul
  Ret: 6.9%
  WBC: 117.1 x10_2/uL
  KIDNEY_L: 1 g
  KIDNEY_R: 1 g
  KIDNEY_TOTAL: 2 g
  LIVER: 8.2 g
  A/G: 1.2
  ALP: 1175.4 IU/L
  ALT: 42 IU/L
  AST: 79.6 IU/L
  BUN: 11.8 mg/dL
  CRE: 0.1 mg/dL
  Ca: 10.8 mg/dL
  Cl: 103.4 meq/L
  DBIL: 0 mg/dL
  GLC: 176.4 mg/dL
  IP: 10.3 mg/dL
  K: 4.2 meq/L
  LDH: 129.2 IU/L
  Na: 139.6 meq/L
  PL: 136.6 mg/dL
  RALB: 3 g/dL
  TBIL: 0.03 mg/dL
  TC: 75.4 mg/dL
  TG: 56.6 mg/dL
  TP: 5.4 g/dL
  gamma-GTP: 1.6 IU/L
24 h
  TERMINAL_BW: 212.8 g
  APTT: 20.5 s
  Bas: 0%
  Eos: 0.6%
  Fbg: 343 mg/dL
  Hb: 12.9 g/dL
  Ht: 37.4%
  Lym: 85%
  MCH: 20.5 pg
  MCHC: 34.6%
  MCV: 59.4 fL
  Mono: 3.8%
  Neu: 9.6%
  PT: 15.7 s
  Plat: 121.3 x10_4/uL
  RBC: 629 x10_4/ul
  Ret: 4.1%
  WBC: 73.2 x10_2/uL
  KIDNEY_L: 0.9 g
  KIDNEY_R: 0.9 g
  KIDNEY_TOTAL: 1.8 g
  LIVER: 9.4 g
  A/G: 1.3
  ALP: 1135 IU/L
  ALT: 39.8 IU/L
  AST: 70 IU/L
  BUN: 27.2 mg/dL
  CRE: 0.2 mg/dL
  Ca: 11.4 mg/dL
  Cl: 103.4 meq/L
  DBIL: 0 mg/dL
  GLC: 171.8 mg/dL
  IP: 10.5 mg/dL
  K: 4.8 meq/L
  LDH: 142.8 IU/L
  Na: 141 meq/L
  PL: 142.4 mg/dL
  RALB: 3.2 g/dL
  TBIL: 0.028 mg/dL
  TC: 79.4 mg/dL
  TG: 59.2 mg/dL
  TP: 5.8 g/dL
  gamma-GTP: 1.4 IU/L
